Data from patent US20130131002A1, “COMPOSITIONS AND METHODS FOR TREATING PULMONARY HYPERTENSION” (Georgetown University, priority 2010, published 2013).
“Also recorded” adds a separate entry of the source.

Legend:
Format in all cases: in vivo, Sprague Dawley rats
[1] = test system: rats with hypoxia-induced pulmonary hypertension; test: Pulmonary arterial wall thickening assessed histologically (H&E stained lungs) in chronic hypoxia rats; settings: vs saline
Text: (§1) All animal studies were approved by the Georgetown University Animal Care and Use Committee. Adult Sprague Dawley rats (200-250 g) were placed in specialized cages connected to the OxyCycler Oxygen Profile Controller (BioSpherix, Redfield, N.Y.) which precisely controls the oxygen and nitrogen contents. Animals were subjected to hypoxic gas (10% O2, balance N2). […] Normoxia control animals are subjected to the same conditions except that they were exposed to ambient O2. All animals were fed normal rat chow during treatment and used in accordance with institutional guidelines.
(§2) After 2-weeks of hypoxia or normoxia treatment, animals were injected intraperitoneally with saline or daunorubicin (20 mg/kg body weight; Sigma-Aldrich, St. Louise, Mo.). After injection, animals were placed back in hypoxia or normoxia condition for 3 days.
(§3) As an indication of the development of pulmonary hypertension, right ventricular hypertrophy was estimated by calculating RV/(LV+S), where RV is the mass of right ventricle, LV is the mass of left ventricle and S is the mass of septum. Right ventricular pressure was measured by inserting a 1.4 F Millar Catheter into the right ventricle at the base of apex using PowerLab 8/30 High Performance Data Acquisition System with Chart Pro in anesthetized and ventilated animals. Pulmonary arterial wall thickening was assessed histologically in hematoxylin and eosin stained lungs. Apoptosis of pulmonary vascular cells was monitored using terminal deoxynucleotidyl transferase dUTP nick end labeling (TUNEL) method.
(§4) Comparisons between the 2 groups were analyzed using a two-tailed Student's t test, and comparisons between 3 or more groups were analyzed by ANOVA with a Student-Newman-Keuls post-hoc test. p<0.05 was considered to be significant. […]
(§5) Comparisons between the 2 groups (2 mg/kg vs. control, or 5 mg/kg vs. control) were analyzed using a two-tailed Student's t test, and comparisons between 3 or more groups were analyzed by ANOVA with a Student-Newman-Keuls post-hoc test. p<0.05 was considered to be significant.

[2] = test system: normal animals without pulmonary hypertension; test: Pulmonary vascular wall thickness (H&E stained lungs) in normoxia control rats
Text: as §1, §2, §3, §4, §5

[3] = test system: pulmonary artery smooth muscle cells; test: Apoptosis of pulmonary vascular cells by TUNEL method in lungs of treated rats; settings: daunorubicin 20 mg/kg i.p.
Text: as §1, with “guidelines. […]” for “guidelines.”
as §3

[4] = Overall body weight of treated animals; settings: lower doses of daunorubicin (2 mg/kg and 5 mg/kg i.p.)

COc1cccc2c1C(=O)c1c(O)c3c(c(O)c1C2=O)C[C@@](O)(C(C)=O)C[C@@H]3O[C@H]1C[C@H](N)[C@H](O)[C@H](C)O1 [daunorubicin]
hypoxia-induced pulmonary vascular wall thickening ([1]; daunorubicin 2 mg/kg i.p. after 2 weeks hypoxia): significantly reducing hypoxia-induced wall thickening; also recorded: significantly reduced hypoxia-induced wall thickening
hypoxia-induced pulmonary vascular wall thickening ([1]; daunorubicin 5 mg/kg i.p. after 2 weeks hypoxia): significantly reducing hypoxia-induced wall thickening; also recorded: significantly reduced hypoxia-induced wall thickening
hypoxia-induced pulmonary vascular wall thickening ([1]; daunorubicin 20 mg/kg i.p. after 2 weeks 10% O2 hypoxia, then 3 more days hypoxia, P<0.05): reduced thickening of pulmonary vascular walls; also recorded: significantly reduced this hypoxia-induced wall thickening
thickness of the vascular walls in normal animals ([2]; daunorubicin 2 mg/kg i.p.): did not affect the thickness of the vascular walls
thickness of the vascular walls in normal animals ([2]; daunorubicin 5 mg/kg i.p.): did not affect the thickness of the vascular walls
thickness of the vascular walls in normal animals ([2]; daunorubicin 20 mg/kg i.p.): did not affect the thickness of the vascular walls
TUNEL-positive (apoptotic) cells in pulmonary vascular walls ([3]; hypoxia-exposed rats, saline controls showed none): induction of apoptosis in pulmonary vascular walls; also recorded: presented TUNEL-positive cells
selectivity of apoptosis induction: thickened vs normal pulmonary vessels ([3]; hypoxia rats (FIG. 3A) vs normoxia rats (FIG. 3B)): can selectively kill pulmonary artery smooth muscle cells involved in thickened vascular walls
overall body weight of the animals [4]: not significantly affecting the overall body weight; also recorded: do not significantly impact the overall body weight
